The source of these data is patent publication US20230414626A1, “INDUCTION OF FERROPTOSIS FOR CANCER THERAPY” (Memorial Sloan Kettering Cancer Center, priority 2020, published 2023).

One experiment has as its system mTORC1 activity. Put plainly: Western blot of S6K phosphorylation (pT389 S6K). The format is cell-based, human. The conditions noted are these: RSL3 0.25 μM. How it is done:
FIG. 7 A-J. PI3K-AKT-mTOR signaling regulates ferroptosis sensitivity. (A) Cells were treated as indicated. GDC-0941, 2 μM; MK-2206, 2 μM; RSL3, 1 μM; Fer-1, 1 μM. Lipid peroxidation was measured. (B) Cells were treated with indicated conditions. Torin, 1 μM; RSL3, 1 μM for MDA-MB-453 cells and 0.5 μM for BT474 cells; Fer-1, 1 μM. Cell death was measured. (C) Cells were treated with indicated conditions. RSL3, 10 μM for MCF cells and PC-3 cells, 5 μM for T47D cells, 1 μM for HepG2 cells; Torin, 1 μM; CCI-779, 0.5 μM. (D) Cells were treated as indicated. CCI-779, 0.5 μM; Torin, 1 μM; Fer-1, 1 μM. Cell death was staining by propidium iodide (PI) (red) or Sytox Green (green) (scale bar, 100 μm). (E-F) 3D spheroids for MDA-MB-453 cells and MCF7 cells were treated as indicated. CCI-779, 0.5 μM; RSL3, 1 μM for MDA-MB-453 cells and 5 μM for MCF7 cells; Fer-1, 1 μM. Top panels, cell death staining (scale bar, 100 m). Bottom panels, cell viability. (G) MDA-MB-453 cells were treated as indicated for 24 h. RSL3, 1 μM; CCI-779, 0.5 μM; GDC-0941, 2 μM; MK-2206, 2 μM; Dabrafenib, 2 μM; SCH772984, 2 μM; Fer-1, 1 μM. (H) Western blot was performed to detect RPTOR and RICTOR knockdown efficiency. (I) HT1080 cells and MDA-MB-231 cells (both with wild-type PI3K-AKT-mTOR pathway) were treated as indicated. RSL3, 0.1 μM for HT1080 and 0.25 μM for MDA-MB-231; Torin, 1 μM; CCI-779, 0.5 μM; Fer-1, 1 μM. Cell death was measured. (J) Two lines of PI3K-AKT-mTOR pathway wild-type cells (HT1080 and MDA-MB-231) and two lines of cells harboring activating mutation of the pathway (BT474 and MDA-MB-453) were treated as indicated. RSL3, 0.25 μM; Fer-1, 1 μM. Western blot was performed to detect the level of pT389 S6K.
Cell lysates were resolved on SDS-PAGE gels and transferred to a nitrocellulose membranes. The membranes were incubated in 5% skim milk for 1 hour at room temperature and then incubated with primary antibodies diluted in blocking buffer at 4° C. overnight. […]
On the technique in general: Immunoblotting shows a protein as a band on a membrane.

The subject of a further experiment is MDA-MB-453 cells. Put plainly: Cell death quantification (Sytox Green), RSL3-induced ferroptosis. The format is cell-based, human. To be noted: fatty acid 0.5 mM, RSL3 1 μM, CCI-779 0.5 μM. How it is done:
(§1) FIG. 1 A-D. Oncogenic activation of the PI3K-AKT-mTOR signaling pathway confers resistance to ferroptosis. (A) Genetic background of the analyzed cancer cell lines and their sensitivity to RSL3. (B) Cells were seeded in 96-well plate, 2×10^4 cells per well and incubated overnight. Cell death was induced by 24-h treatment of RSL3 with indicated concentrations. Cell death were measured by Sytox Green staining, as detailed in Methods. (C) Indicated protein components in the PI3K-AKT pathway were detected by western blot in indicated cell types. (D) Cells were treated with or without PI3K inhibitor GDC-0941 (2 μM), AKT inhibitor MK-2206 (2 μM), RSL3 (1 μM), or ferroptosis inhibitor Ferrostatin-1 (Fer-1, 1 μM) as indicated for 12 h (BT474) or 24 h (MDA-MB-453). Cell death was measured. Indicators for P values (same in all other figures): ****, P≤0.0001; *** P≤0.001; **, P≤0.01; *, P≤0.05; ns, P>0.05
(§2) FIG. 2 A-E. mTORC1, instead of mTORC2, suppresses ferroptosis. (A) MDA-MB-453 and BT474 were treated with CCI-779 (0.5 μM), RSL3 (1 μM for MDA-MB-453 cells and 0.5 μM for BT474 cells), and Fer-1 (1 μM) as indicated. (B) Cells were seeded in 6-well plate, 4×10^5 cells per well and incubated overnight. MDA-MB-453 and BT474 cells were treated as indicated. CCI-779, 0.5 μM; RSL3, 1 μM for MDA-MB-453 cells and 0.5 μM for BT474 cells; Fer-1, 1 μM. Cells were stained with 5 μM C1I-BODIPY followed by flow cytometry after 8 h-treatment. (C) 3D spheroids were treated as indicated. CCI-779, 0.5 μM; RSL3, 0.5 μM; Fer-1, 1 μM. Top panel, dead cells were stained by SYTOX Green (scale bar, 100 μm). Bottom panel, cell viability was assayed by measuring cellular ATP levels. (D) Cells expressing shRNAs targeting RPTOR or RICTOR were treated as indicated. CCI-779, 0.5 μM; RSL3, 0.5 μM; Fer-1, 1 μM. (E) Lipid peroxidation of samples as in panel D were measured.
(§3) FIG. 5 A-H. SREBP1 protects cells from ferroptosis through SCD1 activity. (A) The expression of SREBP1, and its targets SCD1, FASN, and ACACA, in control and SREBF1-sgRNA cells were detected by western blot. (B) The mRNA level of SREPF1 and its targets gene SCD were measured by RT-PCR. (C) Cells were pretreated with or without 5 μM CAY10566 overnight, and then subjected to the indicated treatments. RSL3, 0.5 μM for BT474 cells and 1 μM for MDA-MB-453 cells; CAY10566, 5 μM; Fer-1, 1 μM. (D) Cells expressing control or SCD-sgRNA were treated as indicated. RSL3, 1 μM for MDA-MB-453 cells and 0.5 μM for BT474 cells; Fer-1, 1 μM. (E) 3D spheroids derived from BT474 cells harboring control or SCD-sgRNA were treated as indicated. RSL3, 0.5 μM; CCI-779, 0.5 μM; Fer-1, 1 μM. Left, cell death staining (scale bar, 100 m). Right, cell viability. (F) SCD1 was overexpressed in BT474 cells and determined by western blot. Cells were treated as indicated. RSL3, 0.5 μM; CCI-779, 0.5 μM. (G) 3D spheroids derived from BT474 cells with control or SCD1 overexpression were treated as indicated. RSL3, 0.5 μM; CCI-779, 0.5 μM; Fer-1, 1 μM. Left, cell death staining (scale bar, 100 m). Right, cell viability. (H) Cells were treated as indicated. RSL3, 0.5 μM for BT474 and 1 μM for MDA-MB-453; CCI-779, 0.5 μM; Oleic acid (OA), 0.5 mM; stearic acid (SA), 0.5 mM.
(§4) FIG. 7 A-J. PI3K-AKT-mTOR signaling regulates ferroptosis sensitivity. (A) Cells were treated as indicated. GDC-0941, 2 μM; MK-2206, 2 μM; RSL3, 1 μM; Fer-1, 1 μM. Lipid peroxidation was measured. (B) Cells were treated with indicated conditions. Torin, 1 μM; RSL3, 1 μM for MDA-MB-453 cells and 0.5 μM for BT474 cells; Fer-1, 1 μM. Cell death was measured. (C) Cells were treated with indicated conditions. RSL3, 10 μM for MCF cells and PC-3 cells, 5 μM for T47D cells, 1 μM for HepG2 cells; Torin, 1 μM; CCI-779, 0.5 μM. (D) Cells were treated as indicated. CCI-779, 0.5 μM; Torin, 1 μM; Fer-1, 1 μM. Cell death was staining by propidium iodide (PI) (red) or Sytox Green (green) (scale bar, 100 μm). (E-F) 3D spheroids for MDA-MB-453 cells and MCF7 cells were treated as indicated. […]

For a further experiment, the system named is BT474 cells. The experiment is described as above. The conditions noted are these: fatty acid 0.5 mM, RSL3 0.5 μM, CCI-779 0.5 μM. The format is cell-based, human. On the procedure:
as §1, §2, §3, §4

In the next experiment the test system is HT1080 cells. Put plainly: Cell death quantification, PI3K-AKT-mTOR wild-type cells. The conditions noted are these: HT1080, wild-type PI3K-AKT-mTOR pathway; RSL3 0.1 μM; Torin 1 μM; CCI-779 0.5 μM. It is filed as cell-based, human. How it is done: (§5) FIG. 7 A-J. PI3K-AKT-mTOR signaling regulates ferroptosis sensitivity. (A) Cells were treated as indicated. GDC-0941, 2 μM; MK-2206, 2 μM; RSL3, 1 μM; Fer-1, 1 μM. Lipid peroxidation was measured. (B) Cells were treated with indicated conditions. Torin, 1 μM; RSL3, 1 μM for MDA-MB-453 cells and 0.5 μM for BT474 cells; Fer-1, 1 μM. Cell death was measured. (C) Cells were treated with indicated conditions. RSL3, 10 μM for MCF cells and PC-3 cells, 5 μM for T47D cells, 1 μM for HepG2 cells; Torin, 1 μM; CCI-779, 0.5 μM. (D) Cells were treated as indicated. CCI-779, 0.5 μM; Torin, 1 μM; Fer-1, 1 μM. Cell death was staining by propidium iodide (PI) (red) or Sytox Green (green) (scale bar, 100 μm). […] Cell death was measured. […]
(§6) Cells were seeded in plates at appropriate cell density and incubated overnight at 37° C. containing 5% C02, and then subjected to treatments as described in individual experiments. […] Culture plates were read by Cytation 5 at indicated time points. Percentage of cell death was calculated as Sytox Green-positive cell number over total cell number. For 3D spheroids, cell viability was determined a commercially available cell viability assay (Promega, Madison, WI, USA) following the manufacturer's instructions. Viability was calculated by normalizing ATP levels of samples to that of negative controls (spheroids in normal full media without treatment).

For the next experiment, the system named is MDA-MB-231 cells. The description is as above. The format is cell-based, human. To be noted: MDA-MB-231, wild-type PI3K-AKT-mTOR pathway; RSL3 0.25 μM; Torin 1 μM; CCI-779 0.5 μM. How it is done: as §5, §6
Experiment [1] relates to panel of human cancer cell lines with defined genetic mutations. Put plainly: Sensitivity of cancer cell line panel to RSL3 (cell death, Sytox Green). It is filed as cell-based. The conditions noted are these: cancer cells carrying PIK3CA activating mutation or PTEN deletion; 24-h treatment. On the procedure:
FIG. 1 A-D. Oncogenic activation of the PI3K-AKT-mTOR signaling pathway confers resistance to ferroptosis. (A) Genetic background of the analyzed cancer cell lines and their sensitivity to RSL3. (B) Cells were seeded in 96-well plate, 2×10^4 cells per well and incubated overnight. Cell death was induced by 24-h treatment of RSL3 with indicated concentrations. Cell death were measured by Sytox Green staining, as detailed in Methods. (C) Indicated protein components in the PI3K-AKT pathway were detected by western blot in indicated cell types. […] Cell death was measured. […]
To investigate the functional interplay between ferroptosis and signaling pathways frequently mutated in cancer, we analyzed a panel of human cancer cell lines with defined genetic mutations. […]
Cells were seeded in plates at appropriate cell density and incubated overnight at 37° C. containing 5% C02, and then subjected to treatments as described in individual experiments. […] Culture plates were read by Cytation 5 at indicated time points. Percentage of cell death was calculated as Sytox Green-positive cell number over total cell number. For 3D spheroids, cell viability was determined a commercially available cell viability assay (Promega, Madison, WI, USA) following the manufacturer's instructions. […]

Setting [2] is: wild-type cells (HT1080 and MDA-MB-231), Fer-1 1 μM.

As to `CCOC(=O)c1ccc(NC2CCCCC2)c(N)c1` [ferrostatin-1], the “mTORC1 activity as measured by S6K phosphorylation” value in the experiment with mTORC1 activity (setting [2]) is “prevented RSL3-triggered inactivation of mTORC1 activity”.
In the case of `CCCCCCCC/C=C\CCCCCCCC(=O)O` [oleate acid], the “ferroptosis resistance upon treatment of CCI-779 plus RSL3 (fatty acid supplementation)” value in the experiment on MDA-MB-453 cells and in the experiment on BT474 cells was “resulted in ferroptosis resistance” throughout.
Take `CCCCCC/C=C\CCCCCCCC(=O)O` [palmitoleic acid]: the “ferroptosis resistance upon treatment of CCI-779 plus RSL3 (fatty acid supplementation)” value in the experiment with MDA-MB-453 cells and in the experiment with BT474 cells was “resulted in ferroptosis resistance” throughout.
Turning to `COC(=O)c1ccc([C@@H]2c3[nH]c4ccccc4c3C[C@@H](C(=O)OC)N2C(=O)CCl)cc1` [RSL3], the “ferroptosis induction (cell death)” value with HT1080 cells and in the experiment on MDA-MB-231 cells was “sufficient to induce ferroptosis” in each case. The “mTORC1 activity as measured by S6K phosphorylation” value with mTORC1 activity (cells harboring pathway mutation (BT474 and MDA-MB-453)) is given as “retained active mTORC1”; with mTORC1 activity (setting [2]) it was “inhibited”. Also, the “sensitivity to ferroptosis induction by RSL3” value in experiment [1] is listed as “more resistant”.
